The values that follow come from US20240382600A1, “BIFUNCTIONAL DEGRADERS COMPRISING A TEAD BINDER” (Novartis AG, priority 2021, published 2024).

Experiment [1] deals with MKN-45/Ubc-luc cells (unspecific inhibition of luciferase expression or activity). The experiment can be described thus: Reporter gene assay specificity control (Ubc-Luc), MKN-45. It is filed as cell-based. The note with it: MKN-45/Ubc-luc specificity control, 24 hrs. The text has this: (§1) NCI-H2052 mesothelioma cells (RRID: CVCL_1518) bearing Hippo-pathway inactivating mutations upstream of YAP (homozygous deletion of LATS2 and mutation of NF2) were obtained from ATCC (American Type Culture Collection), while SF268 glioma cells (RRID: CVCL_1689) overexpressing YAP due to genomic amplification were obtained from the NCI (National Cancer Institute). MKN-45 gastric adenocarcinoma cells (RRID: CVCL_0434) genomically deleted for YAP were obtained from the JCRB (Japanese Collection of Research Bioresources) Cell Bank.
As a specificity control, MKN-45 cells were stably transduced with a Ubc-Luc reporter construct, in which constitutive expression of firefly luciferase is driven by the promoter of the ubiquitin C housekeeping gene. The resulting cell line, MKN-45/Ubc-luc, was selected and maintained in growth medium (RPMI 1640 (Amimed Cat #1-41F01-I), 2 mM L-Glutamine (Amimed Cat #5-10K50-H), 10% fetal calf serum (Amimed Cat #2-01F30-I Lot K08815P), 1% MEM Non-essential amino acids (Amimed Cat #5-13K00-H), 1× Penicillin/Streptomycin (Amimed Cat #4-01F00-H)) containing 1 μg/ml blasticidin (Gibco Cat #A11139-03).
(§2) Stock solutions of compounds were prepared at a concentration of 10 mM in DMSO and stored at 4° C. Where necessary to afford a full dose-response curve, the stock solutions were pre-diluted in DMSO to 1′000-fold the desired reduced start concentration. On the day after cell seeding, eleven 2-fold serial dilutions of each compound were dispensed directly into the cell assay plates using a HP 300D non-contact Digital Dispenser (TECAN). The final concentration of DMSO was normalized to 0.1% in all wells.
The ability of compounds to inhibit YAP-dependent transcription was assessed in NCI-H2052 Tet-On shYAP_2371 pLenti6 MCAT_Luc and SF268-MCAT_Luc, dox-i-shYAPLevy (Clone 13) cells, while specificity (lack of unspecific inhibition of luciferase expression or activity) was assessed in MKN-45/Ubc-luc cells. The individual cell lines were seeded at 2′500 cells/20 μl/well into white-wall, clear-bottom 384-well plates (Greiner, Cat #781098) and incubated over night at 37° C. prior to addition of serial compound dilutions as described above. Following incubation for 24 hrs at 37° C., compound-mediated modulation of reporter-gene activity was quantified 5 min after addition 20 μL […] BrightGlo (Promega Cat #E2620), by measuring luminescence intensity on a multi-mode plate-reader (TECAN) with an integration time of 100 ms.
(§3) For data analysis, the assay background value determined in wells containing medium, but no cells, was subtracted from all data points.
(In a reporter assay the amount or activity of a reporter protein is the signal.)

The subject of experiment [2] is NCI-H2052 Tet-On shYAP_2371 pLenti6 MCAT_Luc cells. The experiment can be described thus: Proliferation assay (resazurin/AlamarBlue), NCI-H2052. It is filed as cell-based. To be noted: NCI-H2052, 72 hours.
Source text: as §1, §2
(§4) After incubation for 72 hours at 37° C., compound-mediated modulation of cell viability was quantified as follows. […] To enable differentiation of cytotoxic from cytostatic compound effects, the number of viable cells on the day of compound addition (day 0) was assessed in a separate cell plate and used to assess the extent of cell viability suppression as described in the following section.
as §3
(§5) The extent of growth inhibition and potential cell kill was assessed by comparing the resorufin levels in compound-treated cells with those present at the time of compound addition. To this end, the following conditional concept was programmatically applied in HELIOS to calculate % growth (% G) for each compound-treated well: % G=(T−V0)/V0))*100 when T<V0, and % G=(T−V0)/(V−V0)))*100 when T≥V0, where V0 is the viability level at time of compound addition, while V and T represent vehicle-control and compound-treated viability levels, respectively, at the end of the compound incubation. 100%, 0% and −100% signify absence of growth inhibition, growth stasis, and complete cell kill, respectively. Compound concentrations leading to half-maximal growth inhibition (GI50) and residual cell viability at the highest tested compound concentration (Data(cmax), expressed in percent) were routinely calculated.
(Alamar Blue is a resazurin reagent that responds to reducing activity.)

Experiment [3] concerns the target Avi-humanTEAD4^217-434 / Cy5 labeled humanYAP^60-100 (Homo sapiens (Human), UniProt Q15561). The experiment can be described thus: In-vitro biochemical TR-FRET assay (TEAD4/YAP). The note with it: 1 h at room temperature. The experiment is classed as binding. As for the experimental part: N-terminus Cy5 labeled humanYAP^60-100 (20 nM) was then added to this preparation. Compounds were dissolved at 10 mM in 100% DMSO and serial dilutions were made in 100% DMSO. The diluted compound solutions were incubated in white 384-well plates (Greiner Bio-One) for 1 h at room temperature with the above described mix. The final DMSO concentration present in the assay was 1%. […] The IC50 values were estimated by fitting the data by nonlinear fit regression (GraphPad Prism).
In general terms: In TR-FRET formats the signal depends on donor and acceptor labels being close together.

Experiment [4] has as its system YAP-dependent transcription in SF268-MCAT_Luc_dox-i-shYAPLevy (Clone 13) cells. The experiment can be described thus: YAP reporter gene activity assay (MCAT-Luc), SF268. To be noted: SF268 MCAT_Luc, 24 hrs. The experiment is classed as cell-based.
Experiment [5] concerns YAP-dependent transcription in NCI-H2052 Tet-On shYAP_2371 pLenti6 MCAT_Luc cells. The experiment can be described thus: YAP reporter gene activity assay (MCAT-Luc), NCI-H2052. The experiment is classed as cell-based. To be noted: 24 hrs.
The next experiment relates to MKN-45/Ubc-luc cells. The experiment can be described thus: Proliferation assay (resazurin/AlamarBlue), MKN-45. It is filed as cell-based. To be noted: MKN-45, 72 hours.
Source text: as §1
As a specificity control, MKN-45 cells were stably transduced with a Ubc-Luc reporter construct, in which constitutive expression of firefly luciferase is driven by the promoter of the ubiquitin C housekeeping gene.
as §2, §4, §3, §5

Experiment [6] deals with SF268-MCAT_Luc_dox-i-shYAPLevy (Clone 13) cells. The experiment can be described thus: Proliferation assay (resazurin/AlamarBlue), SF268. The experiment is classed as cell-based. To be noted: SF268, 72 hours.
Source text: as §1, §2, §4, §3, §5

Avi-humanTEAD4^217-434 / Cy5 labeled humanYAP^60-100, sequence (Q15561 217-434): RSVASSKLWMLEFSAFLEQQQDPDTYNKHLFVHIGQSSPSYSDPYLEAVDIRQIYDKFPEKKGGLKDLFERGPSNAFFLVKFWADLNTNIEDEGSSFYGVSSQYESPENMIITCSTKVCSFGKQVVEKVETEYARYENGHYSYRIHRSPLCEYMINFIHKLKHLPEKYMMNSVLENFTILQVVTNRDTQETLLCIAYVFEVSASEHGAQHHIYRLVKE

One may read the IC50 as the concentration at which inhibition is half-maximal. The GI50 is the concentration that inhibits growth by half. With `COc1ccc(C(N)=O)c(-c2c(Cl)c(F)cc3c2[C@H](C)[C@@](CN[C@H]2CC[C@H](C(=O)N4CCC(C5CCN(C(=O)COc6cc(-c7scnc7C)ccc6CNC(=O)[C@@H]6C[C@@H](O)CN6C(=O)[C@@H](NC(=O)C6(F)CC6)C(C)(C)C)CC5)CC4)CC2)(c2ccccc2)O3)c1F` (atropisomer, axis not shown) [Example 43, (2S,4R)-N-(2-(2-(1′-((1S,4r)-4-((((2S,3S,4S)-4-(6-carbamoyl-2-fluoro-3-methoxyphenyl)-5-chloro-6-fluoro-3-methyl-2-phenyl-2,3-dihydrobenzofuran-2-yl)methyl)amino)cyclohexane-1-carbonyl)-[4,4′-bipiperidin]-1-yl)-2-oxoethoxy)-4-(4-methylthiazol-5-yl)benzyl)-1-((S)-2-(1-fluorocyclopropane-1-carboxamido)-3,3-dimethylbutanoyl)-4-hydroxypyrrolidine-2-carboxamide], the IC50 in experiment [1] (Homo sapiens) was more than 2000 nM; in experiment [3] it was 8.7 nM; in experiment [4] (Homo sapiens, SF-268), 2.3 nM; in experiment [5] (Homo sapiens), 17 nM. Further, the concentration for 50% growth inhibition (GI50) in experiment [2] (Homo sapiens) is 73 nM; with MKN-45/Ubc-luc cells (Homo sapiens), more than 200 nM; in experiment [6] (Homo sapiens, SF-268) it was 68 nM.
As to `COc1ccc(C(N)=O)c(-c2c(Cl)c(F)cc3c2[C@H](C)[C@@](CN[C@H]2CC[C@H](C(=O)OC)CC2)(c2ccccc2)O3)c1F` [C-I-k, Methyl (1S,4r)-4-((((2S,3S,4S)-4-(6-carbamoyl-2-fluoro-3-methoxyphenyl)-5-chloro-6-fluoro-3-methyl-2-phenyl-2,3-dihydrobenzofuran-2-yl)methyl)amino)cyclohexane-1-carboxylate], the IC50 in experiment [1] turned out to be 14300 nM; in experiment [3], 1.9 nM; in experiment [4], 33 nM; in experiment [5], 40 nM. The GI50 in experiment [2] turned out to be 27 nM; in the experiment on MKN-45/Ubc-luc cells it was 4110 nM; in experiment [6], 390 nM.
For the molecule `CNC(=O)c1cnc(OCCOCCn2cc(-c3ccc4c(c3)CN(C3CCC(=O)NC3=O)C4=O)nn2)c(F)c1-c1c(Cl)c(F)cc2c1C[C@](c1ccccc1)([C@@H]1CCCN1)O2` (stereo partly drawn) [Example 32, 4-((2S,4S)-5-Chloro-6-fluoro-2-phenyl-2-((S)-pyrrolidin-2-yl)-2,3-dihydrobenzofuran-4-yl)-6-(2-(2-(4-(2-(2,6-dioxopiperidin-3-yl)-1-oxoisoindolin-5-yl)-1H-1,2,3-triazol-1-yl)ethoxy)ethoxy)-5-fluoro-N-methylnicotinamide], the half-inhibitory concentration (IC50) in experiment [1] (Homo sapiens) was more than 20000 nM; in experiment [3] it was 23 nM; in experiment [4] (Homo sapiens, SF-268), 2750 nM; in experiment [5] (Homo sapiens) it was 5900 nM. The GI50 was 6290 nM in experiment [2] (Homo sapiens); more than 20000 nM in the experiment on MKN-45/Ubc-luc cells (Homo sapiens); more than 20000 nM in experiment [6] (Homo sapiens, SF-268).
For the molecule `CNC(=O)c1cnc(OCCOCCOCCn2cc(-c3ccc4c(c3)CN(C3CCC(=O)NC3=O)C4=O)nn2)c(F)c1-c1c(Cl)c(F)cc2c1C[C@](c1ccccc1)([C@@H]1CCCN1)O2` (stereo partly drawn) [Example 33, 4-((2S,4S)-5-chloro-6-fluoro-2-phenyl-2-((S)-pyrrolidin-2-yl)-2,3-dihydrobenzofuran-4-yl)-6-(2-(2-(2-(4-(2-(2,6-dioxopiperidin-3-yl)-1-oxoisoindolin-5-yl)-1H-1,2,3-triazol-1-yl)ethoxy)ethoxy)ethoxy)-5-fluoro-N-methylnicotinamide], the half-inhibitory concentration (IC50) in experiment [1] (Homo sapiens) is more than 20000 nM; in experiment [3], 94 nM; in experiment [4] (Homo sapiens, SF-268) it was 1340 nM; in experiment [5] (Homo sapiens), 3140 nM. Further, the 50% growth inhibitory concentration (GI50) in experiment [2] (Homo sapiens) was 4400 nM; with MKN-45/Ubc-luc cells (Homo sapiens), more than 20000 nM; in experiment [6] (Homo sapiens, SF-268), more than 20000 nM.
On to `COc1ccc(C(N)=O)c(-c2c(Cl)c(F)cc3c2[C@H](C)[C@@](CNCCCCCc2cccc4c2CN(C2CCC(=O)NC2=O)C4=O)(c2ccccc2)O3)c1F` (stereo partly drawn) [Example 35, 2-((2S,3S,4S)-5-chloro-2-(((5-(2-(2,6-dioxopiperidin-3-yl)-1-oxoisoindolin-4-yl)pentyl)amino)methyl)-6-fluoro-3-methyl-2-phenyl-2,3-dihydrobenzofuran-4-yl)-3-fluoro-4-methoxybenzamide], for which the IC50 in experiment [1] (Homo sapiens) is 44 nM; in experiment [3], 7.2 nM; in experiment [4] (Homo sapiens, SF-268), 23 nM; in experiment [5] (Homo sapiens), 32 nM. In addition, the GI50 in experiment [2] (Homo sapiens) was 35 nM; in the experiment on MKN-45/Ubc-luc cells (Homo sapiens) it was 33 nM; in experiment [6] (Homo sapiens, SF-268), less than 20 nM.
On to `COc1ccc(C(=O)NCCCCCc2cccc3c2CN(C2CCC(=O)NC2=O)C3=O)c(-c2c(Cl)c(F)cc3c2C[C@@](CN)(c2ccccc2)O3)c1F` (stereo partly drawn) [Example 36, 2-((2S,4S)-2-(aminomethyl)-5-chloro-6-fluoro-2-phenyl-2,3-dihydrobenzofuran-4-yl)-N-(5-(2-(2,6-dioxopiperidin-3-yl)-1-oxoisoindolin-4-yl)pentyl)-3-fluoro-4-methoxybenzamide], for which the 50% inhibitory concentration (IC50) worked out at 8760 nM in experiment [1] (Homo sapiens); 92 nM in experiment [3]; 9.3 nM in experiment [4] (Homo sapiens, SF-268); 24 nM in experiment [5] (Homo sapiens). Moreover, the 50% growth inhibitory concentration (GI50) in experiment [2] (Homo sapiens) came out at 160 nM; in the experiment on MKN-45/Ubc-luc cells (Homo sapiens) it was 8760 nM; in experiment [6] (Homo sapiens, SF-268) it was 8420 nM.
Consider `COc1ccc(C(=O)NCCCCCn2cc(-c3ccc4c(c3)CN(C3CCC(=O)NC3=O)C4=O)nn2)c(-c2c(Cl)c(F)cc3c2C[C@@](CN)(c2ccccc2)O3)c1F` (stereo partly drawn) [Example 37, 2-((2S,4S)-2-(aminomethyl)-5-chloro-6-fluoro-2-phenyl-2,3-dihydrobenzofuran-4-yl)-N-(5-(4-(2-(2,6-dioxopiperidin-3-yl)-1-oxoisoindolin-5-yl)-1H-1,2,3-triazol-1-yl)pentyl)-3-fluoro-4-methoxybenzamide], for which the concentration for half-maximal inhibition (IC50) was 15900 nM in experiment [1] (Homo sapiens); 120 nM in experiment [3]; 420 nM in experiment [4] (Homo sapiens, SF-268); 3350 nM in experiment [5] (Homo sapiens). Moreover, the GI50 in experiment [2] (Homo sapiens) was 6050 nM; in the experiment on MKN-45/Ubc-luc cells (Homo sapiens), 12400 nM; in experiment [6] (Homo sapiens, SF-268), 14900 nM.
